Results published in article PMC2173257 (The Journal of Cell Biology, 2002).
pIC50: −log10 of the molar value.

Key:
[1] = target: Kes1p (Saccharomyces cerevisiae, UniProt P35844); assay: competitive displacement of [3H]BZDC-PI; type: binding
[2] = target: Kes1p^LH201/202FN (Saccharomyces cerevisiae, UniProt P35844, L201F/H202N); assay: competitive displacement of photo-probe from purified mutant protein; type: binding

## PI(4,5)P2
[1]
  pIC50: 5.72
[2]
  pIC50: 5.21
